Test results from patent US4898870A, “Pyrroloquinoline quinone compounds useful as an enzyme inhibitor” (Sogo Pharmaceutical Company Limited, priority 1986, dated 1990).

Experiments:
[1] = Acute toxicity test, mouse; conditions: in vivo
From the text: (§1) Generally, pyrroloquinoline quinone (hereinafter referred to as PQQ) is a novel coenzyme different from conventional coenzyme NAD(P) or flavins for oxydation-reduction and it was initially found as a coenzyme for glucose dehydrogenase of Acinetobactor group. PQQ has a concern with the oxidizing reaction of alcohols, aldehydes, glucose and amines in an organism. Further, its growth promoting effect to a certain kind of micro-organisms,animal cells, plant cells has also been reported. Further, PQQ is also presented in the blood of mammal and, while its vitamin-like physiological activity is guessed, its biological roles has not yet been known at present. However, PQQ and its derivatives constitute the ingredients of an organism and considered to be a stable and non-toxic substance. This is apparent from the result of the acute toxicity test to mouse and rat described later.
(§2) Acute toxicity test of PQQ tri(dimethylamide)

Acute toxicity test, rat = conditions: in vivo
From the text: as §1, §2

[2] = target: T1, human placental aldose reductase (Homo sapiens, UniProt P15121); assay: Inhibition of human placental aldose reductase; type: biochemical; conditions: human placenta enzyme
T1 construct: An enzyme solution was prepared from human placenta; from tissue; host or cells: human placenta
Protocol: Specifically reaction was started by adding dl-glyceraldehyde as a substrate to a reaction solution containing rat lens homogenate, Li2 SO4, NADPH2 and inhibitor, and the enzyme activity was measured by the decrease of the optical absorption of NADPH2 (optical density: OD) at 340 nm for 5 min. The solution with no addition of the substrate was used for the blank OD. The inhibiting ratio for the aldose reductase reaction by the inhibitor was determined by the following equation: [formula]
The determination of enzyme activity was same as in Test Example 1 except enzyme source was human placenta.
To a reaction solution containing the chick lens homogenate, Li2 SO4, NADPH2 and an inhibitor, was added dlglyceraldehyde as substrate to start the reaction, and the enzymatic activity was determined by measuring the decrease in optical density (OD) of NADPH2 at 340 nm after five minutes. A solution with no substrate added was used for the blank test. The inhibition rate against the aldose reductase reaction was calculated from the following equation: [formula]
An enzyme solution was prepared from human placenta, and the inhibitory action of PQQ·2K against human placental aldose reductase was measured in the same way as in Test Example 4.
An enzyme solution was prepared from human placenta, and the inhibitory action of PQQ·3Me against human placental aldose reductase was measured in the same way as in Test Example 4.
An enzyme solution was prepared from human placenta, and the inhibitory action of PQQ·2Me.Et against human placental aldose reductase was measured in the same way as in Test Example 4.

With CN(C)C(=O)c1cc(C(=O)N(C)C)c2c(n1)C(=O)C(=O)c1cc(C(=O)N(C)C)[nH]c1-2 [PQQ tri(dimethylamide)] the LD50 ([1]; oral) was > 5000 mg/kg, the LD50 ([1]; sc, subcutaneous) was > 1500 mg/kg and the LD50 (Acute toxicity test, rat; oral) was > 5000 mg/kg. The LD50 (Acute toxicity test, rat; sc, subcutaneous) was > 1500 mg/kg and the IC50 [2] was 0.83 µM.
